Results taken from patent publication US20230241088A1, “COMPOSITION FOR PREVENTING OR TREATING LUNG CANCER COMPRISING ORTHO-TOPOLIN RIBOSIDE AS ACTIVE INGREDIENT” (CHUNG-ANG UNIVERSITY INDUSTRY-ACADEMY COOPERATION FOUNDATION, priority 2022, published 2023).
Like-named read-outs stand apart in the source and are kept apart here.

Tests used:
[1] = system: NSCLC cell lines (A549, H1437, H2087, H522, and HCC827); experiment: GC-MS and nanoESI-MS metabolite and lipid profiling of NSCLC cells; assay type: cell-based, Human
Description: The cells were seeded at a density of 2×10^5 cells/mL in a 6-well plate and treated with oTR (10 μM) for 48 hours. The cells were pooled from 3 wells in the 6-well plate and centrifuged at 1,000×g at 4° C. for 2 minutes. The cells were frozen in liquid nitrogen and stored at −70° C. until analysis. The cells were lysed by two freeze-thaw cycles using liquid nitrogen and 37° C. water bath. Protein concentrations were determined using the Bio-Rad protein assay kit (Thermo Scientific, Rockford, Ill.). Bovine serum albumin (BSA) was used as a standard for normalization. The cells were freeze-dried and stored at −70° C. until additional analysis.
(§1) To perform metabolite and lipid analyses of the extracted samples of NSCLC cells and xenograft tumor tissues, GC-MS and nanoESI-MS analyses were conducted according to a previously described method. For quality control (QC), the equal volume of mixture was taken from each sample to be analyzed.
(§2) Raw data files of the lipid analysis (*.raw) were converted into *.mzXML format using the Proteo Wizard MSConvert software. The metabolite and lipid mass spectra were converted using the Expressionist® MSX software (version 2013.0.39, Genedata, Basel, Switzerland) for data processing. The data obtained from NSCLC cells were divided by the peak intensity of the internal standard and total protein content for normalization. The data obtained from the NSCLC xenograft model were divided by the peak intensity of the internal standard for normalization. The data obtained thereby were used for fold-change analysis using the MetaboAnalyst (version 5.0; http://www.metaboanalyst.ca). SPSS software (version 26, IBM, Somers, N.Y.) was used for significance examination for the results, and identification was conducted by Student's t-test and Mann-Whitney test. All data were mean-centered and pretreated to Pareto scaling for principal component analysis (PCA) and orthogonal partial least-squares discriminant analysis (OPLS-DA), performed using the SIMCA-P software (version 15.0.2, Sartorius Stedim Data Analytics AB, Umea, Sweden). Cross validations and permutation tests (100 times) were performed to evaluate the goodness of fit value and predictability of the OPLS-DA model. Volcano plots were generated using the GraphPad Prism 9.0.
oTR-induced alterations of metabolic and lipidomic profiles were analyzed using 5 NSCLC cell lines (A549, H1437, H2087, H522, and HCC827) and xenograft tumor tissues by performing GC-MS and nanoESI-MS analyses. The relative changes in identified metabolites and intact lipid species are shown as fold-changes. […]

[2] = system: xenograft tumor tissues; experiment: GC-MS and nanoESI-MS metabolite and lipid profiling of xenograft tumor tissues; assay type: in vivo, nude mice (female, BALB/cSlc-nu/nu)
Description: The tumor tissue was weighed above 25 mg, and 0.3 mL of ice-cold methanol containing 0.1% BHT was added, followed by homogenization for 1 minutes. Homogenized samples were centrifuged at 10,000×g for 15 minutes at 4° C. The supernatant corresponding to 10 mg of the tissue was used, and metabolites and lipids were extracted using modified Folch method.
as §1, §2
oTR-induced alterations of metabolic and lipidomic profiles were analyzed using 5 NSCLC cell lines (A549, H1437, H2087, H522, and HCC827) and xenograft tumor tissues by performing GC-MS and nanoESI-MS analyses. The relative changes in identified metabolites and intact lipid species are shown as fold-changes. Myo-inositol, amino acids (β-alanine, aspartate, serine, threonine, glutamate, glycine, proline, and tyrosine), organic acids (malate and lactate), pyrimidines (uracil and uridine), creatinine, hypoxanthine, and putrescine decreased in oTR-treated NSCLC cells compared to those in NSCLC cells. These metabolites were the outcomes of consistent and significant alterations in 3 NSCLC cell lines compared to those of respective controls.

[3] = system: A549 cells; experiment: Glycolytic function analysis (Seahorse XFe24, glycoPER); assay type: cell-based, Human; details: oTR 5, 10, and 50 μM, 48 hours, FIG. 5A
Description: Mitochondrial and glycolytic functions were assessed using Seahorse XFe24 analyzer (Agilent Technologies, Lexington, Mass., USA). A549 cells were seeded in a cell culture plate at a density of 1.5×10^4 cells/well. Cells were treated with oTR (5, 10, and 50 μM) for 48 hours after achieving approximately 70-80% confluency. The glycolytic and mitochondrial functions were determined by measuring the proton efflux rate (PER) and oxygen consumption rate (OCR), respectively. Glycolytic PER (glycoPER) was obtained by subtracting mitochondria-derived protons from the total PER. The analyses were conducted according to the manufacturer's instructions.
To investigate real-time changes in cellular metabolic functions, glycoPER (pmol H+/min) and OCR were analyzed (FIG. 5). GlycoPER reflects glycolytic functions, and OCR reflects mitochondrial respiration. […] Measurement of compensatory glycolysis was achieved by blocking oxidative phosphorylation using rotenone/antimycin.

[4] = system: A549 cells; experiment: BrdU cell proliferation assay; assay type: cell-based, Human
Description: The siRNA sequences for ERK1/2 (5′-CCCUGACCCGUCUAAUA-3′ SEQ ID NO: 1), AKT (5′-GAAGGAAGU CAUCGUGCCCAA-3′ SEQ ID NO: 2), and scrambled siRNA (SN-1001-CFG) were purchased from Bioneer (Daejeon, Korea). Cells were transfected with siRNA using Lipofectamine 3000 (Invitrogen, Carlsbad, Calif., USA) according to the manufacturer's instructions.
The 5-bromo-2-deoxyuridine (BrdU) cell proliferation assay was performed according to a previously described method. A549 cells (1×10^4) were grown to approximately 70-80% confluency in 96-well plates and treated with oTR (5, 10, and 50 μM) for 48 hours in the presence or absence of U0126, wortmannin, siERK1/2, and siAKT. Cell proliferation was measured using the Cell Proliferation ELISA, BrdU (colorimetric) kit (Roche Diagnostics, Penzberg, Germany), according to the manufacturer's instructions.

[5] = system: A549 cells; experiment: Annexin V-FITC/propidium iodide flow cytometric apoptosis analysis; assay type: cell-based, Human; details: 48 hours
Description: To detect apoptotic cells, flow cytometric analysis was performed using Annexin V-FITC/propidium iodide double staining of NSCLC cells. A549 cells (4×10^5) were grown to approximately 70-80% confluency in 60 mm dish and treated with oTR (5, 10, and 50 μM) for 48 hours. The cells were stained using the FITC Annexin V Apoptosis Detection Kit (556547, BD Biosciences, Franklin Lakes, N.J., USA) as previously described.

[6] = system: A549 cells tumor xenograft; details: for tumor volume compared to control group: after the second treatment (day 7)
Description: To evaluate the anticancer effect of oTR in tumor tissues, a tumor xenograft model was established by injecting 2.5×10^6 A549 cells into the flanks of nude mice (female, BALB/cSlc-nu/nu). After the tumor volume reached above 100 mm^3 after approximately 3 weeks, the mice were randomized into negative controls and experimental groups (5 mice were used per group). Mice were then injected with oTR solution into the tumor area twice a week for 3 weeks. oTR was dissolved in saline:DMSO (1:1, v/v), and 50 μL of oTR solution was injected into mice in a dose of 100 mg/kg or 150 mg/kg. […] Negative controls were injected with saline:DMSO (1:1, v/v) without oTR. Tumor volume, mouse body weight, and mouse survival were recorded twice a week before injecting oTR. Tumor length (a) and width (b) were measured using calipers and tumor volume (mm^3) was calculated by =(a×b^2)/2.
Tumor xenograft mice were treated with oTR at two doses (100 mg/kg and 150 mg/kg). The tumor volume was measured twice a week for 3 weeks to evaluate the therapeutic effects of the drug in vivo.

[7] = both oTR groups (100 and 150 mg/kg)

OC[C@H]1O[C@@H](n2cnc3c(NCc4ccccc4O)ncnc32)[C@H](O)[C@@H]1O [oTR, ortho topolin riboside] was tested, and the lactate level ([1]; all NSCLC cell lines, oTR 10 μM, 48 hours) was “significantly decreased”, the “levels of myo-inositol, amino acids, organic acids (malate and lactate), pyrimidines (uracil and uridine), creatinine, hypoxanthine, putrescine” value ([1]; oTR 10 μM, 48 hours, vs untreated NSCLC cells) was “decreased” and the “PC, PE, and PS species and Cer 18:1/22:0 levels” value ([1]; oTR-treated NSCLC cells) was “increased”. For the same compound, the “levels of PG and PI species” value ([1]; oTR-treated NSCLC cells) was “decreased”, the “PC, PE, PG, and PI species levels” value ([2]; 100 mg/kg and 150 mg/kg) was “increase” and the PS species levels ([2]; 150 mg oTR-treated group vs control) was “increased”. The “level of aspartate, ascorbate, glucose, glutamate, ornithine, phenylalanine, proline, serine, threonine” value ([2]; 150 mg/kg group vs control) was “significant reduction”, the “citrate, ornithine, and uridine levels” value [2, 7] was “significantly decreased” and the “β-alanine, aminomalonate, glycerol, glycine, and uracil levels” value [2, 7] was “increased”. The “basal and compensatory glycolytic rates (glycoPER)” value [3] was “significant decrease”, the “antiproliferative effect of oTR in presence of ERK inhibitors (U0126) or AKT inhibitors (wortmannin)” value ([4]; U0126 (20 μM) or wortmannin (5 μM), FIG. 6D) was “significantly weakened” and the “cell proliferation (BrdU)” value ([4]; oTR 5, 10, and 50 μM, 48 hours, dose-dependent, FIG. 6A) was “significantly inhibited”. The “oTR-induced antiproliferative activity in ERK or AKT knockdown cells” value ([4]; siERK 1/2 (200 nM) or siAKT (200 nM), FIG. 6D) was “significantly inhibited”, the “increase in percentage of late apoptotic cells compared to untreated NSCLC cells” value ([5]; 10 μM oTR) was 5.70±0.16% and the “increase in percentage of late apoptotic cells compared to untreated NSCLC cells” value ([5]; 50 μM oTR) was 24.56±9.37%. For the same compound, the “dose dependence of oTR-induced changes in tumor volume” value ([6]; 100 mg/kg vs 150 mg/kg) was “did not decrease in a dose-dependent manner”, the “tumor volume compared to control group” value ([6]; 100 mg/kg) was “significantly decreased” and the “tumor volume compared to control group” value ([6]; 150 mg/kg) was “significantly decreased”. For the same compound, the “reduction of body weight relative to initial body weight” value ([6]; mouse, in vivo) was no more than 5%.
